Experimental data taken from publication PMC10459693, “Toward Stability Enhancement of NTS1R-Targeted Radioligands: Structural Interventions on [^99mTc]Tc-DT1” (Pharmaceutics, 2023).
Square brackets hold non-standard residues; d marks the D form. Peptide text beside a SMILES is read from it. * marks the point of attachment. Palmitoyl = CCCCCCCCCCCCCCCC(=O)*; X1 = NCCNCC(CNCCN)C(=O)*

Molecular target: T1, human NTS1R (Homo sapiens, UniProt P30989)
T1 construct: Cell membrane homogenates from WiDr cells were collected; host or cells: WiDr human colorectal adenocarcinoma cells (membrane homogenates)
Assay: Competition binding against [^125I]I-Tyr^3-NT in WiDr cell membranes
Details: for IC50: displacement of [^125I]I-Tyr^3-NT, WiDr cell membranes, 1 h at 22 °C, mean ± sd
Procedure: Cell membrane homogenates from WiDr cells were collected and stored in Tris/EDTA (10 mM Tris, 0.1 mM EDTA, pH 7.4) solution at −80 °C, as previously described. On the day of the experiment, the aliquots thereof were thawed, combined, and diluted in cold binding buffer (BB: 50 mM HEPES, 5.5 mM MgCl2, 0.1 mg/mL bacitracin, 1% w/v BSA, pH 7.4). A dilution series of each test peptide (10^−12–10^−5 M) and a fresh solution of [^125I]I-Tyr^3-NT (~40,000 cpm/70 μL, 214 pM) were prepared and kept on ice. In each RIA tube per placed on ice (in triplicate for each concentration point), the following ice-cold solutions were added: test peptide solution (30 μL), the [^125I]I-Tyr^3-NT radioligand (70 μL), and membrane homogenate (200 μL). Tubes were incubated under constant stirring for 1 h at 22 °C in an Incubator-Orbital Shaker (MPM Instr. Srl; Bernareggio, Italy). The incubation was terminated by placing the tubes on ice and adding ice-cold washing buffer (10 mM HEPES, 150 mM NaCl, pH 7.4). Samples were rapidly passed through Whatman GF/B filters (presoaked for 1 h in BB) on a 48-sample Brandel Cell Harvester (Adi Hassel Ingenieur Büro, Munich, Germany). Separate filters were measured for radioactivity on the γ-counter, and the half maximal inhibition concentration (IC50) was calculated applying a non-linear one-site model (GraphPad Prism Software 6.0, San Diego, CA, USA).

T1 sequence (P30989 whole entry): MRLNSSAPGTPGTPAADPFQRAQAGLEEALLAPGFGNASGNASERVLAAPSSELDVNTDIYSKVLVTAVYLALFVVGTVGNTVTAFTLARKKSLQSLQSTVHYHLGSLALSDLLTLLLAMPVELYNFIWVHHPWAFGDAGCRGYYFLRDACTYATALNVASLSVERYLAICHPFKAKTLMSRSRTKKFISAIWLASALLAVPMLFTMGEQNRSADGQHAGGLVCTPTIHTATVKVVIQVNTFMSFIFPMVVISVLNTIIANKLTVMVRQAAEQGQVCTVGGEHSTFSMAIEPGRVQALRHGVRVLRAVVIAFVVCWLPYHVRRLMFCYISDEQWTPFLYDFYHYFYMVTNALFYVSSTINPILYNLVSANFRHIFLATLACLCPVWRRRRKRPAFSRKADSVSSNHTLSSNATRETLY

| SMILES | drop of binding affinity to the NTS1R compared to DT1 (by a power of) | IC50 [nM] |
| --- | --- | --- |
| CC[C@H](C)[C@H](NC(=O)[C@H](Cc1ccc(O)cc1)NC(=O)[C@@H]1CCCN1C(=O)[C@H](CCCNC(=N)N)NC(=O)[C@H](CCCNC(=N)N)NC(=O)CNC(=O)C(CNCCN)CNCCN)C(=O)N[C@@H](CC(C)C)C(=O)N[C@H](CC(N)=O)C(=O)O [DT7, N4-Gly-Arg-Arg-Pro-Tyr-Ile-Leu-DAsn-OH] (X1-GRRPYIL[dN]-OH) | ~100 | 29.1 ± 4.11 |
| CCCCCCCCCCCCCCCC(=O)NCCCC[C@H](NC(=O)C(CNCCN)CNCCN)C(=O)N[C@@H](CCCNC(=N)N)C(=O)N[C@@H](CCCNC(=N)N)C(=O)N1CCC[C@H]1C(=O)N[C@@H](Cc1ccc(O)cc1)C(=O)N[C@H](C(=O)N[C@@H](CC(C)C)C(=O)O)[C@@H](C)CC [DT9] (X1-K(Palmitoyl)RRPYIL-OH) |  | 0.89 ± 0.7 |
